Measured values published in ChEMBL document CHEMBL1157539, “Thousands of chemical starting points for antimalarial lead identification” (Nature, 2010).

System: Plasmodium falciparum
Test: GSK_TCMDC: Inhibition of Plasmodium falciparum 3D7 in whole erythrocytes, using parasite LDH activity as an index of growth.
Format: functional, organism-based
Conditions: Plasmodium falciparum, 3D7

## O=C(NCCCCN1CCN(c2cccc3c2CCCC3)CC1)c1ccc(NC(=O)c2ccc(Cl)cc2)cc1
  XC50: 447 nM

## Cc1n[nH]c2cc(Nc3nccc(Nc4ccc(Oc5ccccc5)cc4)n3)ccc12
  XC50: 600 nM

## CCNCc1ccc(-c2cccc(-c3nc4ccccc4[nH]3)c2)cc1
  XC50: 550 nM

## CCCCCCCCNCc1c(O)ccc2ccccc12
  XC50: 739 nM

## CCCCNc1ccc(C(=O)NC2CCN(C[C@H](O)c3ccnc4ccc(OC)cc34)CC2)cc1
  XC50: 442 nM

## O=C(Nc1ccc(C(F)(F)F)cc1)c1ccc(NCCCN2CCCCCC2)c([N+](=O)[O-])c1
  XC50: 315 nM

## COc1ccc(NC(=O)Nc2ccc(Nc3nc(C)cc(N4CCCC4)n3)cc2)cc1
  XC50: 135 nM

## O=S(=O)(Nc1ccc(CCN2CCC(N3CCCCC3)CC2)cc1)c1ccc2ccccc2c1
  XC50: 1010 nM

## N=C(N)NC(=O)Nc1cc(F)c(Cl)c(Br)c1
  XC50: 993 nM

## COc1ccc2nccc([C@H](O)CN3CCC(NCc4ccc5c(c4C)OCCO5)CC3)c2n1
  XC50: 886 nM

## COc1cc(OC)c(OC)cc1C=NN=c1cc(C)[nH]c2ccccc12
  XC50: 299 nM

## Cc1cc2c(cc1C(F)(F)F)N(C(=O)Nc1ccc(C(=O)NCCN3CCCC3)cc1)CC2
  XC50: 321 nM

## O=C(NCCc1ccccc1)N(Cc1ccccc1-c1cccc(CNC2CCCC2)c1)C1CCN(Cc2ccccc2)CC1
  XC50: 832 nM

## O=C(/C=C/c1ccsc1)NC1CCC(CN2CCC(c3c[nH]c4ccccc34)CC2)CC1 (stereo not drawn)
  XC50: 1120 nM

## CC(C)=CCN1CCC(C(=O)Nc2ccc(-c3nc4ccccc4[nH]3)cc2)CC1
  XC50: 908 nM

## O=C(O)CCSSc1cccc[n+]1[O-]
  XC50: 808 nM

## CCCc1cc(Cc2cnc(N)nc2N)cc(CC)c1O
  XC50: 1320 nM

## CN1CCC(OC(=O)c2cc3cc(-c4ccccc4)ccc3n2S(=O)(=O)c2ccccc2)CC1
  XC50: 1090 nM

## O=C(NCCN1CCCC1)c1cccc(-c2ccc(-c3nc4cc(C(F)(F)F)ccc4[nH]3)cc2)c1
  XC50: 752 nM

## Cc1cc(NC(=O)Nc2ccc3nccc(N4CCN(C)CC4)c3c2)ccc1Br
  XC50: 92.7 nM

## O=C(CNC1=NCCN1)Nc1ccc(NC(=O)Nc2ccc(NC(=O)CNC3=NCCN3)cc2)cc1
  XC50: 781 nM

## O=C(Nc1ccnc2ccccc12)NC1CCN(Cc2ccccc2)CC1
  XC50: 988 nM

## COC(=O)CCCCCOc1cc(Cc2cnc(N)nc2N)cc(OC)c1OC
  XC50: 179 nM

## CN(c1ccccc1C(=O)Nc1ccccc1Oc1ccccc1)S(=O)(=O)c1ccccc1
  XC50: 1150 nM

## O=C1C(c2ccccc2)=C(Nc2ccc(OC(F)(F)F)cc2)c2ccccc21
  XC50: 107 nM

## CC(C)Cc1nc(N)nc(N)c1-c1ccc(Cl)cc1
  XC50: 145 nM

## O=C(Nc1ccc(-c2cccc(-c3nc4cc(C(F)(F)F)ccc4[nH]3)c2)cc1)Nc1ccc(Cl)c(Cl)c1
  XC50: 746 nM

## C=CCn1c(Sc2ccc(C#N)c([N+](=O)[O-])c2)nnc1-c1ccc(OC)cc1
  XC50: 795 nM

## CC(C)C[C@H](NC(=O)[C@H](Cc1ccccc1)NC(=O)CCN1C(=O)COc2ccc(C(=O)O)cc21)C(=O)NC(CC1CCCCC1)C(O)CC(=O)NCCCn1ccnc1 (stereo partly drawn)
  XC50: 970 nM

## O=C(Nc1cccc(CN2CCCN(Cc3ccc4c(c3)OCO4)CC2)c1)c1ccc2ccccc2c1
  XC50: 1050 nM

## CN1CCc2cc(NC(=O)c3cc4ccccc4s3)cc(-c3ccccc3)c2CC1
  XC50: 885 nM

## Cc1ccc(NC(=O)Nc2ccc(Cl)c(C(F)(F)F)c2)cc1-c1ccc(C(=O)NCCN2CCOCC2)cc1
  XC50: 811 nM

## c1ccc([C@H]2CN3CCSC3=N2)cc1 [LEVAMISOLE]
  XC50: 622 nM

## Cc1c(CNCCCNc2cc(=O)c3ccccc3[nH]2)sc(C(F)F)c1Br
  XC50: 867 nM

## CCOC(=O)Nc1cc(-c2csc(N=C(N)N)n2)cc([N+](=O)[O-])c1
  XC50: 816 nM

## Oc1ccc2ccccc2c1C=NNc1nc(=Nc2ccccc2)[nH]c(=Nc2ccccc2)[nH]1
  XC50: 667 nM

## CCN1CCC(N(Cc2ccc(-c3ccc(C(F)(F)F)cc3)o2)C(=O)Cn2c(CCc3cccc(F)c3F)nc(=O)c3ccccc32)CC1
  XC50: 1140 nM

## COc1ccc2ncc(F)c(CCN3CC[C@@H](CNCc4ccc5c(c4C)OCCO5)C3)c2n1
  XC50: 1030 nM

## O=C(/C=C/c1ccc(Cl)c(Cl)c1)NCCCCCN1CCC(NC(=O)Nc2cccc(Cl)c2F)CC1
  XC50: 378 nM

## CC(=O)Nc1cccc(C(=O)Nc2cccc(-c3csc(-c4nc5ccccc5[nH]4)c3)c2)c1
  XC50: 181 nM

## Cc1cc(CNC(=O)[C@H](CC2CCCCC2)Nc2ccc(C#N)c3ccccc23)c(C(F)(F)F)o1
  XC50: 1180 nM

## COc1ccc(CNc2nc(NCCc3ccccc3)c3cc(OC)c(OC)cc3n2)cc1OC
  XC50: 180 nM

## CCCCCC(C)C(C)c1cc(O)c2c(c1)OC1(C(C)C)CC(O)C(C)C2C1 (stereo not drawn)
  XC50: 985 nM

## COc1ccc2c(=NN=Cc3ccc(F)cc3)cc(C)[nH]c2c1
  XC50: 773 nM

## CNC(=O)c1cc(S(=O)(=O)N2CCN(c3ccccn3)CC2)cs1
  XC50: 669 nM

## O=C(Nc1nc2ccc(Cl)cc2s1)c1csnn1
  XC50: 786 nM

## COc1cccc(O)c1CN1CCC2(CCCN(Cc3ccc(F)cc3)C2)C1 (stereo not drawn)
  XC50: 865 nM

## N#Cc1cccc(C(=O)Nc2ccc(-c3cccc(CN4CCC(O)CC4)c3)cc2)c1
  XC50: 995 nM

## CC(=O)Oc1c(C(=O)C2CCC(C(C)(C)C)CC2)c(OC(C)=O)c2ccccc2c1OC(C)=O (stereo not drawn)
  XC50: 268 nM

## O=C(Nc1ccc([N+](=O)[O-])cc1Cl)c1cc2ccccc2cc1O
  XC50: 1010 nM

## O=C(NCCN1CCC(c2ccncc2)CC1)c1cccc(Nc2nccc(Nc3ccc(Oc4ccccc4)cc3)n2)c1
  XC50: 168 nM

## Cc1ccc(O)cc1Nc1ccnc2cc(-c3nccs3)ccc12
  XC50: 879 nM

## CCc1cn(C)c2c(N3CCCC3=O)cc(C(=O)N[C@@H](Cc3ccccc3)[C@H](O)CNC(C)(C)c3cccc(OC)c3)cc12
  XC50: 36 nM

## CN(C)c1cc(NC(=O)Nc2ccccc2)c2ccccc2n1
  XC50: 405 nM

## CC(C)CCCC(C)NC[C@@H](O)[C@H](Cc1ccccc1)NC(=O)c1cc(N2CCCC2=O)cc(N(c2ccccc2)S(C)(=O)=O)c1 (stereo partly drawn)
  XC50: 58.4 nM

## CCC1CN2CCc3c([nH]c4ccccc34)C2CC1CC1=NCCc2c1[nH]c1ccccc21 (stereo not drawn)
  XC50: 737 nM

## CC(C)(C)c1ccc(CN2CCC(NC(=O)c3ccc(-c4cccc(C(F)(F)F)c4)s3)CC2)cc1
  XC50: 359 nM

## CC(C)NCc1ccc(-c2ccc(-c3nc4cc(F)ccc4[nH]3)cc2)cc1
  XC50: 213 nM

## COc1cc2nc(N3CCC(CNC(=O)c4cccc5cc[nH]c45)CC3)nc(N)c2cc1OC
  XC50: 1580 nM

## c1cc(-c2cc3ccc(C4=NCCN4)cc3[nH]2)ccc1C1=NCCN1
  XC50: 224 nM

## CC(=O)N/N=C/[C@H](CCc1ccccc1)NC(=O)[C@H](CC(C)C)NC(=O)c1cccc(OCCN2CCOCC2)c1
  XC50: 236 nM

## O=C(Nc1cccc(Cl)c1)c1cnc(N2CCN(c3ccncc3)CC2)c(Cl)c1
  XC50: 963 nM

## N#Cc1cccc(C(=O)N2CCOC(CCN3CCC(c4ccccc4)CC3)(c3ccc(Cl)c(Cl)c3)C2)c1 (stereo not drawn)
  XC50: 1040 nM

## Cc1cccc(-c2ccc(NC(=O)Nc3ccc4nccc(N5CCN(C)CC5)c4c3)cc2C)n1
  XC50: 212 nM

## CCc1c(CCNCCCCCCNCCc2ccc(Br)cc2)ccc(OC)c1OC
  XC50: 232 nM

## Cc1cc(C(F)(F)F)cc(-n2ncc(-c3ccc(C(=O)NCc4ccccc4N)cc3)c2N)n1
  XC50: 453 nM

## COc1ccc2c(=NN=C(C)c3ccccn3)cc(C)[nH]c2c1
  XC50: 722 nM

## COc1ccc2nccc([C@@H](O)CN3CCC(NC(=O)C(=Cc4ccc(C#N)cc4)c4ccc(-c5ccccc5)cc4)CC3)c2c1
  XC50: 739 nM

## COc1ccc(C2CC(=O)C3=C(C2)NC(C)=C(C(=O)OC(C)C)C3c2c(F)cccc2Cl)cc1OC (stereo not drawn)
  XC50: 824 nM

## CC(C)Cn1c2ccccc2c2nc3nc(N)nc(N)c3nc21
  XC50: 725 nM

## Cc1ccc(Nc2nccc(NCC(O)c3cccc(C(F)(F)F)c3)n2)cc1 (stereo not drawn)
  XC50: 677 nM

## C[C@H]1CN(Cc2cccc(-c3cc(CNC(=O)c4cccc(CN5CCN(C/C=C/c6ccccc6)CC5)c4)ccc3F)c2)CCN1
  XC50: 852 nM

## COc1c(C2CCN(CCCCNC(=O)c3ccc(-c4ccc(C#N)cc4)cc3)CC2)cc(Cl)c2c1CCCC2
  XC50: 776 nM

## Cc1cnc(CNCc2ccc(S(=O)(=O)Nc3ccc(Oc4cccc(Cl)c4)cc3)cc2)cn1
  XC50: 766 nM

## CCCNCc1ccc(-c2ccc(CN(C(=O)c3nn(-c4ccccc4)nc3C)C3CC3)cc2)nc1
  XC50: 210 nM

## Cc1ccc(NC(=O)c2ccc3ncccc3c2)cc1OC1CCN(Cc2ccc(F)cc2)C1 (stereo not drawn)
  XC50: 1360 nM

## O=C(Nc1nc(-c2ccccn2)cs1)c1ccccc1COc1ccccc1
  XC50: 972 nM

## CCN(CCCN1CCCCC1)c1cc(C)nc(Nc2cc(Br)ccc2C)n1
  XC50: 405 nM

## CC1CCC(NCc2ccc3c(CNC4CCC(C)CC4)c(O)ccc3c2O)CC1 (stereo not drawn)
  XC50: 116 nM

## CCc1cc(I)c2c(c1)C(NCCCNc1cc(=O)c3ccccc3[nH]1)CCN2 (stereo not drawn)
  XC50: 887 nM

## CCCN(CC(=O)NCCc1ccccc1)c1ccc(C#N)c2ccccc12
  XC50: 500 nM

## CCN(CC)CCN(Cc1ccc(-c2ccc(Br)cc2)cc1)C(=O)Cn1c(CCc2cccc(F)c2F)nc(=O)c2ccccc21
  XC50: 788 nM

## COc1ccc(-c2ccccc2CNc2nc(NCCc3ccc(O)cc3)nc(N3CCNCC3)n2)cc1
  XC50: 1080 nM

## Nc1ncc(-c2ccc3nccc(-c4ccncc4)c3c2)cc1S(=O)(=O)N1CCOCC1
  XC50: 872 nM

## CC[C@H](N/C(=N\c1cccc(Cl)c1Cl)Nc1ccc(C#N)cc1O)c1ccccc1
  XC50: 815 nM

## CC(C)Cn1c(Sc2ccc(C#N)c([N+](=O)[O-])c2)nnc1-c1cccc(Cl)c1
  XC50: 301 nM

## CC(C)Cn1ncc2c3c(N)nc(N)nc3ccc21
  XC50: 159 nM

## COc1ccc(-c2cnc(N)c(-c3ccc(O)c(OC)c3)c2)cn1
  XC50: 875 nM

## COc1cccc(O)c1CNCC(O)c1cccc(C(F)(F)F)c1 (stereo not drawn)
  XC50: 945 nM

## Cn1c2c(c3ccccc31)CN(CCC1(c3ccc(Cl)c(Cl)c3)CN(C(=O)c3ccccc3)CCO1)CC2 (stereo not drawn)
  XC50: 311 nM

## Cc1ccc(NC(=O)Cc2noc(CC3CCCN3C(=O)N[C@@H](C)c3ccccc3)n2)cc1 (stereo partly drawn)
  XC50: 369 nM

## CC(c1cccc(S(=O)(=O)NCc2ccc(Cl)cc2Cl)c1)N1CCC(N2CCCCC2)CC1 (stereo not drawn)
  XC50: 747 nM

## CN1CCN(c2ccnc3ccc(NC(=O)Cc4ccc5ccccc5c4)cc23)CC1
  XC50: 759 nM

## O=C(Nc1ccccc1)Nc1ccc(-n2ccc(C(F)(F)F)n2)cc1
  XC50: 632 nM

## O=C(CSc1nccn1C1CCCC1)Nc1cc(C(F)(F)F)ccc1Cl
  XC50: 382 nM

## CCCc1cc(C(=O)N[C@@H](Cc2ccccc2)[C@H](O)CNC(C)C)c(F)c(N2CCCC2=O)c1
  XC50: 943 nM

## O=C(Nc1ccc(Cl)cc1C(=O)Nc1ccncc1)c1ccc(Cl)cc1Cl
  XC50: 611 nM

## CN(Cc1ccccc1)C1CCN(c2cc(NC(=O)c3cccc(F)c3)ccn2)CC1
  XC50: 1510 nM
